Source: US10028956B2, “Methods of treating various cancers using an AXL/cMET inhibitor in combination with other agents” (Ignyta, Inc., priority 2013, dated 2018)
Marks after values point to notes of the source that are not given here.

Key:
[1] = target: T1, AXL (Homo sapiens, UniProt P30530); assay: AXL enzyme inhibition (recombinant enzyme); assay type: biochemical
T1 sequence (P30530 26-894): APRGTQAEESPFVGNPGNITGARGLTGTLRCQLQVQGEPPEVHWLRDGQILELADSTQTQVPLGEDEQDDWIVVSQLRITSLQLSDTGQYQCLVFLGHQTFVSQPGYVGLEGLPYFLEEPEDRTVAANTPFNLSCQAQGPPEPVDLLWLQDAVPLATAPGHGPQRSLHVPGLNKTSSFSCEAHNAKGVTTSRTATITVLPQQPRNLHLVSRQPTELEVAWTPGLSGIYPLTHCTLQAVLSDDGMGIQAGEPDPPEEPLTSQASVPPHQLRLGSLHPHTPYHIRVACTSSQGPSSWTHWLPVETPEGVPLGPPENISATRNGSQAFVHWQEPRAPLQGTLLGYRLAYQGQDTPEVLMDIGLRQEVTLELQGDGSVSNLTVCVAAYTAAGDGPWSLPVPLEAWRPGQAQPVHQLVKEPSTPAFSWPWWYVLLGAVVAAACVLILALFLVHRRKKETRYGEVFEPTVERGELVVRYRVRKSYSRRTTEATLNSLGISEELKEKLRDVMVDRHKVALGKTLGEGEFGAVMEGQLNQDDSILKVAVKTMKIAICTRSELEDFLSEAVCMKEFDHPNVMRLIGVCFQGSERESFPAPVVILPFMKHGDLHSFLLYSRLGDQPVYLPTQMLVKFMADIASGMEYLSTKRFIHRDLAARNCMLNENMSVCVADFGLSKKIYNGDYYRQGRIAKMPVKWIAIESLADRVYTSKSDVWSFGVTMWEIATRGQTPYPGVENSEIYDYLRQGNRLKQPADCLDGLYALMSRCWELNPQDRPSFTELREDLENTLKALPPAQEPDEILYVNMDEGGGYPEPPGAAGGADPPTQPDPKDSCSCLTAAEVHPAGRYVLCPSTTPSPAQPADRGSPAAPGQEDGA

[2] = PK in dog; settings: in vivo
[3] = system: MDA-MB-231-Leu orthotopic breast tumor xenografts; assay: Metastases of MDA-MB-231-Leu orthotopic breast tumor xenografts; assay type: in vivo, mice; settings: oral administration, 10 and 30 mg/kg qd
Procedure: The human breast cancer cell line MDA-MB-231-Leu-D3H2LN-luciferase expressing cell line was purchased from Caliper Life Sciences. This tumor cell line was generated by stable transfection of the firefly luciferase gene expressed from the SV40 promoter and further selected for its metastatic potential upon isolation from a spontaneous lymph node metastasis of MDA-MB-231-Luc cells in immune-compromised mice. The cells were grown in DMEM medium supplemented with 10% fetal bovine serum (FBS, Cat^# SH3007003, Hyclone, Logan, Utah). D-Luciferin firefly/potassium salt (Cat. # L-8220) was purchased from Biosynth International, Inc., Itasca, Ill.). Female nu/nu mice (6 to 8 weeks old) were purchased from Harlan Laboratories. […] Mouse body weights were measured on day 0 and then every 7 days, and bioluminescence image analysis performed at the end of the study using the Caliper Life Sciences (Xenogen) Spectrum imager as detailed in FIG. 6. Images of the primary tumor and potential metastatic tumors in lymph nodes were taken weekly, starting on day 7 post cell implantation. Prior to image acquisition, each mouse were give a 0.2 ml intra-peritoneal injection of D-Luciferin firefly/potassium salt and images were acquired 6-10 minutes post substrate administration. […] Counts were converted to average radiance or mean photon flux; expressed as photons per second (p/s). […]

[4] = system: CTG-0157 primary NSCLC human TumorGraft; assay: NSCLC TumorGraft model CTG-0157; assay type: in vivo, mice; settings: CTG-0157, 14 days
Procedure: Methods (for the experiments shown in FIGS. 10 and 11) • Female immunocompromised nu/nu mice (Harlan) between 6-9 weeks of age were housed on irradiated papertwist-enriched ⅛″ corncob bedding (Sheperd) in individual HEPA ventilated cages (Innocage® IVC, Innovive USA) on a 12-hour light-dark cycle at 68-74° F. (20-23° C.) and 30-70% humidity. Animals were fed water ad libitum (reverse osmosis, 2 ppm Cl2) and an irradiated Test rodent diet (Teklad 2919) consisting of 19% protein, 9% fat, and 4% fiber. • Tumor Models: Champions TumorGraft models of NSCLC are owned by Champions Oncology. In this study, animals were implanted unilaterally on the right flank with tumor fragments harvested from host animals. […] Erlotinib (manufacturer: OSI Pharmaceuticals; National Drug Code: 50242-062-01; Lot #: US0002) was formulated using 100% PEG-400 as the vehicle according to manufacturer's specifications.
Efficacy measurements: Beginning Day 0, tumor dimensions were measured twice weekly by digital caliper (Fowler Ultra-Cal IV) and data including individual and mean estimated tumor volumes (Mean TV±SEM) were recorded for each group; tumor volume was calculated using the formula TV=width^2×length×0.52. At study completion, percent tumor growth inhibition (% TGI) values were calculated and reported for each treatment group (T) versus control (C) using initial (i) and final (f) tumor measurements by the formula: % TGI=1−Tf−Ti/Cf−C; single agent or combination therapies resulting in a TGI>50 at study completion are considered active in the tested model at the evaluated treatment regimen according to NCI guidelines. […] If the PR persisted until study completion, percent tumor regression (% TR) was determined using the formula: % TR=1−Tf/Ti×100; a mean value was calculated if multiple PR mice occurred in one group. […] Statistical differences in tumor volume were determined using a two-tailed One-Way Analysis of Variance (ANOVA) followed by the Dunett's multiple comparisons test comparing treated groups with control and combinations with standard agent alone when possible. […]

[5] = target: T1, AXL; assay: Cellular potency in NCI-H1299 human NSCL cells; assay type: cell-based; parameters: endogenous in cells; host or cells: NCI-H1299 human NSCLC cells (culture; subcutaneous xenograft in mice)
[6] = intravenous, 0.5 mg/kg i.v. and p.o.

## COc1cc2nccc(Oc3ccc(NC(=O)c4cn(C(C)C)c(=O)n(-c5ccc(F)cc5)c4=O)cc3F)c2cc1OC [CEP-40783, 3-(4-Fluorophenyl)-1-isopropyl-2,4-dioxo-1,2,3,4-tetrahydropyrimidine-5-carboxylic acid [4-(6,7-dimethoxyquinolin-4-yloxy)-3-fluorophenyl]-amide]
[1]
  IC50: 7 nM
[2]; 0.5 mg/kg i.v. and p.o.
  Cmax: 1170 ng/mL
[2]; [6]
  Vd: 1.3 L/kg
  clearance: 0.5 mL/min/kg
[2]; iv, 0.5 mg/kg i.v., read-out: t1/2 i.v. (converted)
  half-life: 27.6 h
[2]; oral, 0.5 mg/kg i.v. and p.o.
  bioavailability: 100%
[2]; po, 0.5 mg/kg p.o.
  AUC(0-t): 14400 ng·h/mL
[3]
  spontaneous lymph node and pulmonary metastatic tumor burden: efficacious in reducing spontaneous lymph node and pulmonary metastatic tumor burden
[4]; 10 mg/kg po/qd
  % Tumor Growth Inhibition: 3%
[4]; 30 mg/kg po/qd
  % Tumor Growth Inhibition: 85%*†
[5]
  IC50: 0.1 nM
